Measurements: ChEMBL document CHEMBL1201862, “PubChem BioAssay data set” (2004)
Activity calls are given as the source filed them.

Assays:
[1] = biological target: T1, Zinc finger protein mex-5 (Caenorhabditis elegans, UniProt Q9XUB2); test: potency of MEX-5 RNA-binding blockers – biochemical, C. elegans, fluorescence polarization, dose response (AID 1960)
T1 sequence (Q9XUB2 whole entry): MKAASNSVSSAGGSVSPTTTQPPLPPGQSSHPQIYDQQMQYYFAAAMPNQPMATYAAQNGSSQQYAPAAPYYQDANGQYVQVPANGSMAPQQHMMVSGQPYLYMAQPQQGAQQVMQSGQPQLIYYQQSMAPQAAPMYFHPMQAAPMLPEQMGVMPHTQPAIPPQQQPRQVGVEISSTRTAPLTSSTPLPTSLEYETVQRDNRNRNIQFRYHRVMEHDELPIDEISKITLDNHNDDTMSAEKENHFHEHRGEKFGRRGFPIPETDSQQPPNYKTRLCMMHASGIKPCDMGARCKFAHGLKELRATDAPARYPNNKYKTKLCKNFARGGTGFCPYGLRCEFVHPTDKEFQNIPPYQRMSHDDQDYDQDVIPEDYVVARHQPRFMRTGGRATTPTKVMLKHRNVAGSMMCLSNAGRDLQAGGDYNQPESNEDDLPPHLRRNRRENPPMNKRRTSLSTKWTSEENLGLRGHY

Cysteine protease ATG4B = biological target: T2, Cysteine protease ATG4B (Homo sapiens, UniProt Q9Y4P1); assay type: functional;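 note: Fluorescence-based dose-response confirmation assay measuring inhibition of ATG4B activity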
T2 sequence (Q9Y4P1 whole entry): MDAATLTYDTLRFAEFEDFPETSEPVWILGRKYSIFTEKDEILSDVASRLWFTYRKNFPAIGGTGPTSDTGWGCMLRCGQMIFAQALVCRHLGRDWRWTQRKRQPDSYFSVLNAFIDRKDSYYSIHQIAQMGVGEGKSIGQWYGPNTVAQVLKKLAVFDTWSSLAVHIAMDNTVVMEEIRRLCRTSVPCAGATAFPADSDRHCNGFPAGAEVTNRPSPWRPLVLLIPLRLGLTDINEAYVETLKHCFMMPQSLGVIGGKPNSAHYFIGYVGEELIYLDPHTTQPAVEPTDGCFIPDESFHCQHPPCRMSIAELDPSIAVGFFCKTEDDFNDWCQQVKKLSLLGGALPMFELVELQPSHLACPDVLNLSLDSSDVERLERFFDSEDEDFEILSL

Phospholipase A2 = Phospholipase A2 (Homo sapiens, UniProt P04054); assay type: functional;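 note: confirmatory dose-response counterscreen on phospholipase A2, testing hits that came from an ultra-high-throughput screen for ATG4B inhibitors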
Protein Tat = biological target: T3, Protein Tat (Human immunodeficiency virus type 1 group M subtype B (isolate HXB2)(HIV-1), UniProt P04608); assay type: functional;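 note: tat binding to TAR RNA read out by fluorescence polarization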
T3 sequence (P04608 whole entry): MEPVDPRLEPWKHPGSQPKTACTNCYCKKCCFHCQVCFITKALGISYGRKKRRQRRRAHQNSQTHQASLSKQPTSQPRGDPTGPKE

[2] = viability loss in THP-1 monocytes – THP-1 cells, cytotoxicity control for Vif-APOBEC3G degradation inhibitor project, dose response (AID 1117359); assay type: functional; conditions: THP-1
Escherichia coli [3] = test: microbe, parasite or virus in culture
Escherichia coli [4] = test: microbe, parasite or virus in culture; remark: listed apart in the source
HeLa = test: ATP-based viability loss in HeLa cells – cell-based, CellTiter-Glo luminescence, cherry-pick samples, cytotoxicity control for MITF activator project, dose response (AID 540259); assay type: functional; conditions: Homo sapiens
[5] = test system: Streptococcus sp. 'group A'; test: Streptococcus pyogenes SK(-)GAS viability under kanamycin – luminescence, BacTiterGlo, confirmation, counter-screen for streptokinase expression inhibitor project, dose response (AID 1900); assay type: functional, organism-based
Streptokinase A = biological target: T4, Streptokinase A (Streptococcus pyogenes serotype M1, UniProt P10520); test: viability-normalized secreted streptokinase activity reduction – plasminogen activation absorbance, OD405, dose response (AID 1914); assay type: functional, Streptococcus pyogenes M1 GAS;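 note: secreted streptokinase activity via plasminogen activation per viability signal from cell pellet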
T4 sequence (P10520 whole entry): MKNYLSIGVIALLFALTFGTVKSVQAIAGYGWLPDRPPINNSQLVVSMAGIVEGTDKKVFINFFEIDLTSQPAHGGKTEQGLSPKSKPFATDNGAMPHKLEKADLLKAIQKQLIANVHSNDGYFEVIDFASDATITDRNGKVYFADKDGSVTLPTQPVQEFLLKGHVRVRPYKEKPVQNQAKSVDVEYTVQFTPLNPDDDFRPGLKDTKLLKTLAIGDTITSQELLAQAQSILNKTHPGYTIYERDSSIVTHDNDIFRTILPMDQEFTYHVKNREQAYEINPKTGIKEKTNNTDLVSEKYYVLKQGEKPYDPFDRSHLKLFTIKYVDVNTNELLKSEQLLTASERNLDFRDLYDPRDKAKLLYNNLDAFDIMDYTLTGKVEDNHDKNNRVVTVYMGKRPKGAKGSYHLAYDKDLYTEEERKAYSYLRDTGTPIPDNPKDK

Streptococcus = test: GAS UMAA2166 growth inhibition – luminescence, BacTiterGlo, counter-screen for streptokinase expression inhibitor project, dose response (AID 1915); assay type: functional, organism-based;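 note: potency for reduction of bacterial viability or growth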
CHO-K1 = test: (§1) Counterscreen for antagonists of the orexin 1 receptor (OX1R; HCRTR1): Homogeneous time resolved fluorescence (HTRF)-based cell-based dose response assay to identify antagonists of the parental CHO-K1 cell line. [Related pubchem assays (depositor defined):AID434989, AID435008, AID463079, AID485270, AID492963, AID492964, AID492965, AID493232, AID504699, AID504701]; assay type: functional; conditions: Cricetulus griseus
[6] = Luminescence Cell-Based Dose Retest to Confirm Inhibitors of Cancer Stem Cells. [Related pubchem assays (depositor defined):AID2717, AID2721]; assay type: functional; conditions: Homo sapiens
[7] = as §1, with “Fluorescence-based” for “Homogeneous time resolved fluorescence (HTRF)-based”, “cell-based high throughput” for “cell-based”, “CHO” for “CHO-K1”; assay type: functional
[8] = biological target: T5, Orexin/Hypocretin receptor type 1 (Homo sapiens, UniProt O43613); test: Homogeneous Time Resolved Fluorescence (HTRF)-based cell-based high throughput dose response assay for antagonists of the orexin 1 receptor (OX1R; HCRTR1). [Related pubchem assays (depositor defined):AID434989, AID435008, AID463079, AID485270, AID492963, AID492964, AID492965, AID493232, AID504717, AID504718]; assay type: functional
T5 sequence (O43613 whole entry): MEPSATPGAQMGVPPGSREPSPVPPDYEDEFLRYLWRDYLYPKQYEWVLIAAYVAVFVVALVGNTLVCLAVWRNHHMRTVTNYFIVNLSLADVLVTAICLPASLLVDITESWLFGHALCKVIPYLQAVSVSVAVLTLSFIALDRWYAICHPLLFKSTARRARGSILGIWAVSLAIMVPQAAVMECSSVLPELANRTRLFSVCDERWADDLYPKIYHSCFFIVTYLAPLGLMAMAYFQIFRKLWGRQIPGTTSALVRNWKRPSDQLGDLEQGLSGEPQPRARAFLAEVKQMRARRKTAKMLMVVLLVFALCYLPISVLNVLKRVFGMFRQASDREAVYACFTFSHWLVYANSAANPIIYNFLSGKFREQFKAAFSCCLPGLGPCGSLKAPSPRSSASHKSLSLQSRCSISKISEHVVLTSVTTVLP

[9] = viability loss of HMLE_sh_eGFP cells – cell-based, luminescence, counter-screen for HMLE_sh_ECad selective toxicity project, dose response (AID 463074); assay type: functional, Homo sapiens;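 note: HMLE human mammary epithelial cells expressing control shRNA against eGFP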
[10] = biological target: T5, Orexin/Hypocretin receptor type 1; test: Fluorescence-based cell-based high throughput dose response assay for antagonists of the orexin 1 receptor (OX1R; HCRTR1). [Related pubchem assays (depositor defined):AID434989, AID435008, AID463079, AID485270, AID492963, AID492964, AID492965, AID493232, AID504717, AID504718]; assay type: functional
Orexin receptor type 2 [11] = biological target: T6, Orexin receptor type 2 (Homo sapiens, UniProt O43614); test: Counterscreen assay for antagonists of the orexin 1 receptor (OX1R; HCRTR1): Fluorescence-based cell-based dose response assay for antagonists of the orexin 2 receptor (OX2R; HCRTR2), run by assay provider.; assay type: functional
T6 sequence (O43614 whole entry): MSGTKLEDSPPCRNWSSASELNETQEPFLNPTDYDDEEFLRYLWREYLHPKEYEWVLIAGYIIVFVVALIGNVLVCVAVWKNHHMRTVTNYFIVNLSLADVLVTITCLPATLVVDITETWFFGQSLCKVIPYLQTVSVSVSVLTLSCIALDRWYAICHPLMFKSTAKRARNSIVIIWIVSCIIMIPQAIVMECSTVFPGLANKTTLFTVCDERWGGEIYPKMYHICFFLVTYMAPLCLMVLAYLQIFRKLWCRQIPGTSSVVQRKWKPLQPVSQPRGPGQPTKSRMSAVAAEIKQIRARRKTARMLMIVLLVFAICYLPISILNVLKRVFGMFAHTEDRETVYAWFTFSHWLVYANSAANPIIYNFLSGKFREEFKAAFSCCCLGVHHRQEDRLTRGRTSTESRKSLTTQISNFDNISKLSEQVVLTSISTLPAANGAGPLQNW

Orexin receptor type 2 [12] = biological target: T6, Orexin receptor type 2; test: Counterscreen assay for antagonists of the orexin 1 receptor (OX1R; HCRTR1): Homogeneous Time Resolved Fluorescence (HTRF)-based cell-based dose response assay for antagonists of the orexin 2 receptor (OX2R; HCRTR2), run by assay provider.; assay type: functional
[13] = biological target: Dual specificity tyrosine-phosphorylation-regulated kinase 1A (Rattus norvegicus, UniProt Q63470); assay type: biochemical, Homo sapiens

Chain of Phospholipase A2 (P04054 whole entry): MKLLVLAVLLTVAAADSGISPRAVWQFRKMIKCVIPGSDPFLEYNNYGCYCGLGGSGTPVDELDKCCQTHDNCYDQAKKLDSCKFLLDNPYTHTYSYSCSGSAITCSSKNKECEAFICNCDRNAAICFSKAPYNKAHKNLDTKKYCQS

With `C[C@H]1c2cccc(O)c2C(=O)C2=C(O)[C@]3(O)C(=O)C(C(N)=O)=C(O)[C@@H](N(C)C)[C@@H]3[C@@H](O)[C@@H]21` the EC50 [1] was 37.9 µM (active), the IC50 (Cysteine protease ATG4B) was 10.4 µM (active) and the IC50 (Phospholipase A2) was 42.9 µM (inactive). The IC50 (Protein Tat) was > 100 µM (active), the CC50 [2] was 36 µM (active) and the AC50 (Escherichia coli [3]) was 20.8 µM (active). For the same compound, the AC50 (Escherichia coli [4]) was 783 nM (active).
In the case of `Cc1ccc(NC(=O)C(=O)NCc2ccccn2)cc1`, the AC50 (HeLa) is reported as > 350 µM (inactive).
In the case of `O=c1c2ccccc2oc2cc(-c3ccc4[nH]ccc4c3)ccc12`, the EC50 [5] is reported as 8.57 µM (active), the EC50 (Streptokinase A) is reported as > 150 µM (not active) and the EC50 (Streptococcus) is reported as > 150 µM (not active). The IC50 (CHO-K1) was > 66.3 µM (inactive), the AC50 [6] was 255 nM (active) and the IC50 [7] was 48.8 µM (inactive). For the same compound, the IC50 [8] was 2.71 µM (active), the AC50 [9] was 290 nM (inconclusive) and the IC50 [10] was 6.96 µM (active). The IC50 (Orexin receptor type 2 [11]) was 40 µM (inactive) and the IC50 (Orexin receptor type 2 [12]) was > 50 µM (inactive).
For `COc1ccc(C=C2SC(=S)NC2=O)cc1`, the AC50 [13] was 104 nM (active).
